{"source": "the supplement of paper PMC10307832", "test_in_all_cases": "relative viability (nuclei count vs DMSO), 5 days (fraction); higher = more cells survive", "key": {"Nelarabine + OSI-027": {"compound": "COc1nc(N)nc2c1ncn2[C@@H]1O[C@H](CO)[C@@H](O)[C@@H]1O [Nelarabine] + COc1cccc2cc(-c3nc([C@H]4CC[C@H](C(=O)O)CC4)n4ncnc(N)c34)[nH]c12 [OSI-027] (partner 0.5 µM)", "summary_of_the_method": "(§1)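 One day after seeding in 1536-well plates, lung cancer cell lines were dosed by pin tool. Dosing was either single-drug or a fixed anchor-drug dose plus five library-drug doses (not always all listed) in √10 steps. After 5 days, nuclei were stained in one fix-and-stain step and counted on 4× images, and relative viability is the nuclei count of treated wells over that of vehicle wells, given as the median of duplicate plates.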"}, "Adavosertib + OSI-027": {"compound": "C=CCn1c(=O)c2cnc(Nc3ccc(N4CCN(C)CC4)cc3)nc2n1-c1cccc(C(C)(C)O)n1 [Adavosertib] + COc1cccc2cc(-c3nc([C@H]4CC[C@H](C(=O)O)CC4)n4ncnc(N)c34)[nH]c12 [OSI-027] (partner 0.5 µM)", "summary_of_the_method": "as §1"}, "Nelarabine + Bortezomib": {"compound": "COc1nc(N)nc2c1ncn2[C@@H]1O[C@H](CO)[C@@H](O)[C@@H]1O [Nelarabine] + CC(C)C[C@H](NC(=O)[C@H](Cc1ccccc1)NC(=O)c1cnccn1)B(O)O [Bortezomib] (partner 0.002 µM)", "summary_of_the_method": "as §1"}, "Adavosertib + AZD7762": {"compound": "C=CCn1c(=O)c2cnc(Nc3ccc(N4CCN(C)CC4)cc3)nc2n1-c1cccc(C(C)(C)O)n1 [Adavosertib] + NC(=O)Nc1cc(-c2cccc(F)c2)sc1C(=O)N[C@H]1CCCNC1 [AZD7762] (partner 0.2 µM)", "summary_of_the_method": "as §1"}}}
{"cell line": "EMC-BAC-2", "values": [{"measurement": "relative viability", "setting": "Nelarabine + OSI-027; first compound 0.01 µM", "value": 0.393}, {"measurement": "relative viability", "setting": "Nelarabine + OSI-027; first compound 0.03162 µM", "value": 0.41}, {"measurement": "relative viability", "setting": "Nelarabine + OSI-027; first compound 0.1 µM", "value": 0.398}, {"measurement": "relative viability", "setting": "Nelarabine + OSI-027; first compound 0.3162 µM", "value": 0.36}, {"measurement": "relative viability", "setting": "Nelarabine + OSI-027; first compound 1 µM", "value": 0.377}, {"measurement": "relative viability", "setting": "Adavosertib + OSI-027; first compound 0.01 µM", "value": 0.375}, {"measurement": "relative viability", "setting": "Adavosertib + OSI-027; first compound 0.03162 µM", "value": 0.412}, {"measurement": "relative viability", "setting": "Adavosertib + OSI-027; first compound 0.1 µM", "value": 0.396}, {"measurement": "relative viability", "setting": "Adavosertib + OSI-027; first compound 0.3162 µM", "value": 0.307}, {"measurement": "relative viability", "setting": "Nelarabine + Bortezomib; first compound 0.01 µM", "value": 1.24}, {"measurement": "relative viability", "setting": "Nelarabine + Bortezomib; first compound 0.03162 µM", "value": 1.06}, {"measurement": "relative viability", "setting": "Nelarabine + Bortezomib; first compound 0.1 µM", "value": 1.05}, {"measurement": "relative viability", "setting": "Nelarabine + Bortezomib; first compound 0.3162 µM", "value": 1.15}, {"measurement": "relative viability", "setting": "Nelarabine + Bortezomib; first compound 1 µM", "value": 1.04}, {"measurement": "relative viability", "setting": "Adavosertib + AZD7762; first compound 0.03162 µM", "value": 1.15}, {"measurement": "relative viability", "setting": "Adavosertib + AZD7762; first compound 0.1 µM", "value": 0.887}, {"measurement": "relative viability", "setting": "Adavosertib + AZD7762; first compound 0.3162 µM", "value": 1.06}]}
